According to article PMC6225228, “Design, Synthesis and Evaluation of N-pyrazinylbenzamides as Potential Antimycobacterial Agents” (Molecules : A Journal of Synthetic Chemistry and Natural …, 2018):
Converted amounts (≈) assume the structure as drawn. Read-outs that look alike come from different tables or passages of the source.

How the values were obtained:
[1] = test system: Staphylococcus aureus H 5996/08 methicillin resistant; assay: microbe, parasite or virus in culture; type: cell-based; conditions: Staphylococcus aureus, MRSA, read-out: MIC MRSA
[2] = test system: Escherichia coli CCM 4517; assay: Antibacterial microdilution broth, EC; type: cell-based; conditions: Escherichia coli, read-out: MIC EC
Candida tropicalis 156 = assay: Antifungal microdilution broth, CT; type: cell-based; conditions: read-out: MIC CT
[3] = test system: Enterococcus sp. J 14365/08; assay: Antibacterial microdilution broth, EF; type: cell-based; conditions: Enterococcus, read-out: MIC EF
[4] = test system: Mycobacterium tuberculosis H37Rv CNCTC My 331/88 (ATCC 27294); assay: Antimycobacterial microdilution MABA, M. tuberculosis; type: cell-based; conditions: for Mtb H37Rv ATCC 27294 MIC: Middlebrook 7H9 with OADC growth supplement, pH = 6.6, MABA; for MIC: Mycobacterium tuberculosis
Trichosporon asahii 1188 = assay: Antifungal microdilution broth, TA; type: cell-based; conditions: read-out: MIC TA
[5] = test system: Candida albicans ATCC 44859; assay: Antifungal microdilution broth, CA; type: cell-based; conditions: read-out: MIC CA
[6] = test system: Mycobacterium smegmatis CCM 4622 (ATCC 607); assay: Antimycobacterial microdilution, M. smegmatis; type: cell-based; conditions: Mycolicibacterium smegmatis, read-out: M. smeg. ATCC 607 MIC
[7] = test system: Lichtheimia corymbifera 272; assay: Antifungal microdilution broth, LC; type: cell-based; conditions: read-out: MIC LC
Candida glabrata 20/I = assay: Antifungal microdilution broth, CG; type: cell-based; conditions: read-out: MIC CG
[8] = test system: M. avium ssp. avium CNCTC My 80/72 (ATCC 15769); assay: Antimycobacterial microdilution MABA, M. avium; type: cell-based, Mycobacterium avium; conditions: for M. avium ATCC 15769 MIC: Middlebrook 7H9 with OADC, pH 6.6, MABA; for MIC: Mycobacterium avium, ATCC15769, pH 6.6, read-out: M. avium ATCC 15769 MIC
[9] = test system: Aspergillus fumigatus 231; assay: Antifungal microdilution broth, AF; type: cell-based; conditions: read-out: MIC AF
Candida krusei E28 = assay: Antifungal microdilution broth, CK; type: cell-based; conditions: read-out: MIC CK
[10] = test system: Trichophyton interdigitale 445; assay: Antifungal microdilution broth, TI; type: cell-based; conditions: read-out: MIC TI
[11] = test system: M. kansasii CNCTC My 235/80 (ATCC 12478); assay: Antimycobacterial microdilution MABA, M. kansasii; type: cell-based, Mycobacterium kansasii; conditions: for M. kans. ATCC 12478 MIC: Middlebrook 7H9 with OADC, pH 6.6, MABA; for MIC: Mycobacterium kansasii, ATCC12478, pH 6.6, read-out: M. kans. ATCC 12478 MIC, Middlebrook 7H9 with OADC, pH 6.6, MABA
[12] = test system: Staphylococcus aureus CCM 4516/08; assay: Antibacterial microdilution broth, SA; type: cell-based
[13] = test system: Staphylococcus epidermidis H 6966/08; assay: Antibacterial microdilution broth, SE; type: cell-based; conditions: Staphylococcus epidermidis, read-out: MIC SE
[14] = human, HepG2 cells
[15] = test system: Pseudomonas aeruginosa CCM 1961; assay: Antibacterial microdilution broth, PA; type: cell-based; conditions: Pseudomonas aeruginosa, read-out: MIC PA
[16] = Confirmatory prolonged HepG2 cytotoxicity, CellTox Green Cytotoxicity Assay; conditions: human, HepG2 cells
[17] = test system: eight fungal strains of clinical importance; assay: Antifungal microdilution, all tested fungal strains; type: cell-based; conditions: read after 24 h (Trichophyton interdigitale 72 h)
[18] = read-out: Mtb H37Rv ATCC 27294 MIC, Middlebrook 7H9 with OADC growth supplement, pH = 6.6, MABA
[19] = read-out: Mtb MIC, molar concentration
[20] = Trichosporon asahii, 1188, 24 h
[21] = Trichosporon asahii, 1188, 48 h
[22] = Candida albicans, ATCC44859, 24 h
[23] = Candida albicans, ATCC44859, 48 h
[24] = Lichtheimia corymbifera, 272, 24 h
[25] = Lichtheimia corymbifera, 272, 48 h
[26] = Nakaseomyces glabratus, 20/I, 24 h
[27] = Nakaseomyces glabratus, 20/I, 48 h
[28] = Aspergillus fumigatus, 231, 24 h
[29] = Aspergillus fumigatus, 231, 48 h
[30] = Trichophyton interdigitale, 445, 72 h
[31] = Trichophyton interdigitale, 445, 120 h
[32] = Staphylococcus aureus, CCM4516, 24 h, read-out: MIC SA, 24 h
[33] = Staphylococcus aureus, CCM4516, 48 h, read-out: MIC SA, 48 h

Cc1ccc(C(=O)Nc2cnc(Cl)cn2)cc1 [Compound 2h]
MIC ([1]; 24 h): > 125 µM
MIC ([1]; 48 h): > 125 µM
MIC ([2]; CCM4517, 24 h): > 125 µM
MIC ([2]; CCM4517, 48 h): > 125 µM
melting point: 186.4 to 187.1 °C
MIC (Candida tropicalis 156; Candida tropicalis, 156, 24 h): > 125 µM
MIC (Candida tropicalis 156; Candida tropicalis, 156, 48 h): > 125 µM
MIC ([3]; SP.J14365/08, 24 h): > 125 µM
MIC ([3]; SP.J14365/08, 48 h): > 125 µM
Mtb H37Rv ATCC 27294 MIC [4]: 6.25 µg/mL
MIC [4, 18]: 3.13 to 6.25 µg/mL
MIC [4, 19]: 25.2 µM
MIC (Trichosporon asahii 1188; [20]): > 125 µM
MIC (Trichosporon asahii 1188; [21]): > 125 µM
MIC [5, 22]: > 125 µM
MIC [5, 23]: > 125 µM
MIC [6]: ≥ 500 µg/mL
MIC [7, 24]: > 125 µM
MIC [7, 25]: > 125 µM
MIC (Candida glabrata 20/I; [26]): > 125 µM
MIC (Candida glabrata 20/I; [27]): > 125 µM
M. avium ATCC 15769 MIC [8]: >100 µg/mL
MIC [8]: > 100 µg/mL
MIC [9, 28]: > 125 µM
MIC [9, 29]: > 125 µM
MIC (Candida krusei E28; Pichia kudriavzevii, E28, 24 h): > 125 µM
MIC (Candida krusei E28; Pichia kudriavzevii, E28, 48 h): > 125 µM
MIC [10, 30]: > 125 µM
MIC [10, 31]: > 125 µM
M. kans. ATCC 12478 MIC [11]: >100 µg/mL
MIC [11]: > 100 µg/mL
MIC ([12]; 24 h, read-out: MIC SA): >125 µM
MIC [12, 32]: > 125 µM
MIC [12, 33]: > 125 µM
MIC ([13]; H6966/08, 24 h): > 125 µM
MIC ([13]; H6966/08, 48 h): > 125 µM
IC50 at 24 h [14]: > 250 µM
MIC ([15]; CCM1961, 72 h): > 125 µM
MIC ([15]; CCM1961, 120 h): > 125 µM

CCc1ccc(C(=O)Nc2cnc(Cl)cn2)cc1 [Compound 2i]
MIC ([1]; 24 h): > 125 µM
MIC ([1]; 48 h): > 125 µM
MIC ([2]; CCM4517, 24 h): > 125 µM
MIC ([2]; CCM4517, 48 h): > 125 µM
MIC (Candida tropicalis 156; Candida tropicalis, 156, 24 h): > 125 µM
MIC (Candida tropicalis 156; Candida tropicalis, 156, 48 h): > 125 µM
MIC ([3]; SP.J14365/08, 24 h): > 125 µM
MIC ([3]; SP.J14365/08, 48 h): > 125 µM
Mtb H37Rv ATCC 27294 MIC [4]: 3.13 µg/mL
MIC [4, 18]: 3.13 to 6.25 µg/mL
MIC [4, 19]: 12 µM
MIC (Trichosporon asahii 1188; [20]): > 125 µM
MIC (Trichosporon asahii 1188; [21]): > 125 µM
MIC [5, 22]: > 125 µM
MIC [5, 23]: > 125 µM
MIC [6]: ≥ 500 µg/mL
MIC [7, 24]: > 125 µM
MIC [7, 25]: > 125 µM
IC50 at 24 h [16]: 264 µM
IC50 at 48 h [16]: 250 µM
MIC (Candida glabrata 20/I; [26]): > 125 µM
MIC (Candida glabrata 20/I; [27]): > 125 µM
M. avium ATCC 15769 MIC [8]: >100 µg/mL
MIC [8]: > 100 µg/mL
MIC [9, 28]: > 125 µM
MIC [9, 29]: > 125 µM
MIC (Candida krusei E28; Pichia kudriavzevii, E28, 24 h): > 125 µM
MIC (Candida krusei E28; Pichia kudriavzevii, E28, 48 h): > 125 µM
MIC [10, 30]: > 125 µM
MIC [10, 31]: > 125 µM
M. kans. ATCC 12478 MIC [11]: >100 µg/mL
MIC [11]: > 100 µg/mL
MIC ([12]; 24 h, read-out: MIC SA): >125 µM
MIC [12, 32]: > 125 µM
MIC [12, 33]: > 125 µM
MIC ([13]; H6966/08, 24 h): > 125 µM
MIC ([13]; H6966/08, 48 h): > 125 µM
IC50 at 24 h [14]: > 250 µM
MIC ([15]; CCM1961, 72 h): > 125 µM
MIC ([15]; CCM1961, 120 h): > 125 µM

C[C@@H]1[C@H](O)[C@@H](C)/C=C/C=C/CC/C=C/C=C/C=C/C=C/C(O[C@H]2O[C@H](C)[C@@H](O)[C@H](N)[C@@H]2O)CC2O[C@](O)(CC(O)C(O)CCC(O)CC(O)CC(O)CC(=O)O[C@H]1C)CC(O)C2C(=O)O (stereo partly drawn) [NYS, nystatin, reference compound]
MIC (Candida tropicalis 156; 24 h): 1.95 µM (≈ 1.81 µg/mL)
MIC (Candida tropicalis 156; 48 h): 3.9 µM (≈ 3.61 µg/mL)
MIC (Trichosporon asahii 1188; 24 h): 1.95 µM (≈ 1.81 µg/mL)
MIC (Trichosporon asahii 1188; 48 h): 1.95 µM (≈ 1.81 µg/mL)
MIC ([5]; 24 h): 0.98 µM (≈ 0.908 µg/mL)
MIC ([5]; 48 h): 1.95 µM (≈ 1.81 µg/mL)
MIC ([7]; 24 h): 15.62 µM (≈ 14.5 µg/mL)
MIC ([7]; 48 h): 31.25 µM (≈ 28.9 µg/mL)
MIC (Candida glabrata 20/I; 24 h): 1.95 µM (≈ 1.81 µg/mL)
MIC (Candida glabrata 20/I; 48 h): 3.9 µM (≈ 3.61 µg/mL)
MIC ([9]; 24 h): 1.95 µM (≈ 1.81 µg/mL)
MIC ([9]; 48 h): 3.9 µM (≈ 3.61 µg/mL)
MIC (Candida krusei E28; 24 h): 1.95 µM (≈ 1.81 µg/mL)
MIC (Candida krusei E28; 48 h): 3.9 µM (≈ 3.61 µg/mL)
MIC ([10]; 72 h): 3.9 µM (≈ 3.61 µg/mL)
MIC ([10]; 120 h): 7.81 µM (≈ 7.23 µg/mL)
MIC, all tested fungal strains [17]: 0.98 to 15.62 µM
